# Assay: Foam quality and foam volume test of the isosorbide sulfosuccinate
# Assay type: physicochemical
# Settings: 2.5% active substance in water, stirred to foam under standard conditions
# Experimental: The foam quality and foam volume of this surfactant was tested as follows:
# The isosorbide sulfosuccinate is dissolved in water at a rate of 2.5% active substance, and stirred to foam under standard conditions. According to a visual evaluation the surfactant of Example 1 has a foam quality of 4-5 on a scale of 1 (small bubbles, high cushion, stable foam) to 5 (large bubbles, unstable foam), and a foam volume equal to 32% of the foam for a standard surfactant (see FIG. 1).
substance,measurement,setting,value
Isosorbide Lauroylester Sulfosuccinate [Example 1],foam volume,,32 % of the foam for a standard surfactant
same,foam quality,"visual evaluation, scale of 1 (small bubbles, high cushion, stable foam) to 5 (large bubbles, unstable foam)",4-5
